# Experimental data as given in PMC3401626 (Chemmedchem, 2011).
# Key:
# Eis [1] = molecular target: T1, Eis (Mycobacterium tuberculosis, UniProt P9WFK7); test: Eis inhibition, UV-Vis DTNB assay of aminoglycoside acetylation; assay type: biochemical; conditions: at least 3 trials
# AAC(3)-IV = molecular target: T2, AAC(3)-IV (Salmonella sp, UniProt P08988); test: Inhibitors' selectivity: AAC; assay type: biochemical, Escherichia coli; conditions: inhibitor 200 to 0.2 μM; enzyme 0.25 μM
# T2 sequence (P08988 with tags, fused parts or gaps limits assumed): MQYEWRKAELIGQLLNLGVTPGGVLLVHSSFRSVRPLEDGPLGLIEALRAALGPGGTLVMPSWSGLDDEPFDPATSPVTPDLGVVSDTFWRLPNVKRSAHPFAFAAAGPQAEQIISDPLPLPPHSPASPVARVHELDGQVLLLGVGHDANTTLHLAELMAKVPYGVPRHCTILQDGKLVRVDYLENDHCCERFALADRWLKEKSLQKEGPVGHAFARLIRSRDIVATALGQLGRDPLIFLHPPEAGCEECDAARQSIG
# Eis [2] = molecular target: T1, Eis; test: Mode of inhibition of Eis; assay type: biochemical; conditions: for Mode of inhibition against NEO: varying NEO 50-200 μM
# [3] = cited from earlier work
# AAC(2′)-Ic = AAC(2′)-Ic (Mycobacterium tuberculosis, UniProt P9WQG9); test: Inhibitors' selectivity: AAC; assay type: biochemical, Mtb; conditions: inhibitor 200 to 0.2 μM
# Sequence of AAC(2′)-Ic (P9WQG9 whole entry): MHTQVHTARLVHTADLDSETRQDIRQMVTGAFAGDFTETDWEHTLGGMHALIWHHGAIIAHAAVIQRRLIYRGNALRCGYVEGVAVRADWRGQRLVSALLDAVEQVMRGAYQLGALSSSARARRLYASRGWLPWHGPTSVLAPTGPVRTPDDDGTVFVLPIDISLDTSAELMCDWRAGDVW
# AAC(6′)/APH(2″)-Ia = AAC(6′)/APH(2″)-Ia (Staphylococcus aureus, UniProt P0A0C1); test: Inhibitors' selectivity: AAC; assay type: biochemical; conditions: inhibitor 200 to 0.2 μM; enzyme 0.25 μM
# Sequence of AAC(6′)/APH(2″)-Ia (P0A0C1 whole entry): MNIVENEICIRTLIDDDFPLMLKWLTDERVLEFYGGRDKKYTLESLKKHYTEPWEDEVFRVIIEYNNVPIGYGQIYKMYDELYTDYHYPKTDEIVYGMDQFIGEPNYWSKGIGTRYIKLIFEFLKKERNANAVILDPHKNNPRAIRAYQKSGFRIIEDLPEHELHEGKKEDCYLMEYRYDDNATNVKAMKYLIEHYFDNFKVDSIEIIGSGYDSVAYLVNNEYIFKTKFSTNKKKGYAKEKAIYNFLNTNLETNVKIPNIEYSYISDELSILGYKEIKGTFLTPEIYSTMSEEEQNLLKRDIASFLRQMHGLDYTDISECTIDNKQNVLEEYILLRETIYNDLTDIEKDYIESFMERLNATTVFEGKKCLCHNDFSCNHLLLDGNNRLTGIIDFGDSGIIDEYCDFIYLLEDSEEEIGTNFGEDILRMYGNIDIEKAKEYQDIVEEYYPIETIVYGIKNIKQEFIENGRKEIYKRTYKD
# T1 sequence (P9WFK7 whole entry): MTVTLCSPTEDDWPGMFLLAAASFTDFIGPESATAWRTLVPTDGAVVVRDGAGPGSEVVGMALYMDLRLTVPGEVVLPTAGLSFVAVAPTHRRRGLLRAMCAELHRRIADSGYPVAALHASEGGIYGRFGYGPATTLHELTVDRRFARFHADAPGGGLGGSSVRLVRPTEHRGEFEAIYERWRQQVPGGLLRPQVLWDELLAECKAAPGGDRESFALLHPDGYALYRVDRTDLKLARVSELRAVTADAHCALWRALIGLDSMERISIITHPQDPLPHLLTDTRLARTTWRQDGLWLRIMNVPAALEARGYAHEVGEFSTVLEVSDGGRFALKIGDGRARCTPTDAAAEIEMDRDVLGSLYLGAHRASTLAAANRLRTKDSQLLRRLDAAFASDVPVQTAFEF
smiles,measurement,setting,value
"[H]/N=C(\N/C(=N/[H])NCCCCCCNC(=N)NC(=N)Nc1ccc(Cl)cc1)Nc1ccc(Cl)cc1 [Compound 6, chlorhexidine]",IC50,"Eis [1]; Eis inhibition constants (IC50) using AMK, substrate AMK",321 ± 58 nM
same,IC50,"Eis [1]; Eis inhibition constants (IC50) using KAN, substrate KAN",666 ± 193 nM
same,inhibition of AAC(3)-IV,AAC(3)-IV,no significant inhibition
same,Mode of inhibition against AMK,"Eis [2]; substrate AMK, listed as chlorhexidine (6)",AG-competitive inhibitor
same,Mode of inhibition against KAN,"Eis [2]; substrate KAN, listed as chlorhexidine (6)",AG-competitive inhibitor
same,Mode of inhibition against NEO,Eis [2],competitive inhibitor
same,Mode of inhibition against NEO,Eis [2]; listed as chlorhexidine (6),AG-competitive inhibitor
same,toxic effects on pulmonary tissues,[3],toxic effects on pulmonary tissues
same,inhibition of AAC(2′)-Ic,AAC(2′)-Ic,no significant inhibition
same,inhibition of AAC(6′)/APH(2″),AAC(6′)/APH(2″)-Ia,no significant inhibition
